Source: US8614246B2, “Indole derivatives for treating neurodegenerative diseases” (Centre National de la Recherche Scientifique (CNRS), priority 2009, dated 2013)

How the values were obtained:
[1] = tested on: dopaminergic neurons (TH+ neurons) in primary cultures of ventral mesencephalon; experiment: Neuritogenesis: total neuritic length per dopaminergic neuron in primary cultures of ventral mesencephalon; format: cell-based; conditions: Product 10 nM, 8 days culture, rat embryo ventral mesencephalon; untreated control = 100
Experimental: Dissection. Dissection consists of extracting embryos from the uterus of a rat after fifteen days of gestation. The brain of each embryo is then dissected under magnifying binoculars in order to extract the ventral mesencephalus.
Seeding. Mesencephalons are grouped in a flask containing 2 mL of L15 medium and then mechanically dissociated (30 repeat operations), 5 mL of L15 medium are added. The suspension is allowed to stand for 8 minutes. The 5 mL float is then recovered in a new flask and the cells are dissociated again (30 repeat operations). 5 mL of L15 is added again and the suspension is left to stand for 8 minutes. The 5 mL float is added to the previous float. The cells thus extracted are then centrifuged for 5 minutes at 1000 rpm^−1. The cell sediment is dissolved in a Neurobasal medium supplemented with 1% of B27, 1% of glutamine and 1% of a mixture of penicillin and streptomycin. The cells are then seeded at an appropriate dilution (0.6 embryos per well in 24-well plates and 0.4 per well in 48-well plates). The cultures are incubated at 37° C. in a wet atmosphere enriched with 5% CO2 in 24-well or 48-well plates.
Treatment. After 24 hours, two-thirds of the medium in each well is replaced by a new medium enriched with the product to be tested at the appropriate dilution. The medium is replaced in the same way after 4 days of culture.
Immunohistochemistry. After 8 days culture, the cells are fixed by a solution of 4% formaldehyde and then washed three times with PBS. The cells are then submitted to anti-tyrosine hydroxylase (TH) immunohistochemistry, developed by a secondary antibody coupled to a fluorophore emitting in the red (Cy3).
Analyses. Neuroprotection is evaluated by counting positive TH neurons with 10 fields per well directly under an inverted fluorescence microscope, reported as a percentage of the untreated control. Experiments are done on three wells per condition. Three independent experiments are done under these conditions. The total neuritic length per cell is calculated using Explora Nova's Neurite Outgrowth software on 60 to 100 neurons photographed independently per condition.
Primary cultures of ventral mesencephalon of rat embryos after 15.5 days of gestation under conditions causing spontaneous death of dopaminergic neurons, are maintained in the presence or absence of the compounds to be tested for 8 days. After fixing, the cultures are submitted to immunocytochemistry directed against tyrosine hydroxylase, a specific marker of dopaminergic neurons.
Neuritogenesis is quantified by measuring the total neuritic length per dopaminergic neuron (neuritic length/TH^+ neuron) using an image analyser on a minimum of sixty photographed neurons per condition (10-30% of all dopaminergic neurons).
All experiments were done by comparison with a positive control, dibutyryl-AMP cyclic (db-AMPc) (Mourlevat S. et al. Mol. Pharmacol. 2003, 64 (3), 578-586).

[2] = Test with ABTS (anti-oxidant capacity, hydroxyl radicals generated by Fenton's reaction); format: biochemical; conditions: 30 minutes at ambient temperature, range 10 nM to 1 mM, read-out: IC50 ± SEM (concentration at which 50% of hydroxyl radicals have been reduced) (converted)
Source text: ABTS or 2,2′-azino-bis-(3-ethylbenzthiazoline-6-sulfonic) acid is a coloured indicator of the presence of hydroxyl radicals in solution. The attack of a hydroxyl radical on ABTS generates the formation of an ATBS^+. cation radical (Equation 1). This coloured entity makes the absorbance (Abs) of the solution equal to 450 nm. ABTS+HO. ? ABTS^+. +HO^− Equation 1
During the test, hydroxyl radicals are generated by Fenton's reaction in the presence of iron and hydrogen peroxide (Equation 2) H2O2+Fe^2+ ? HO. +HO^−+Fe^3+ Equation 2
When a radical trap or antioxidant is present in solution, competition with ABTS is set up for reduction of hydroxyl radicals, which reduces the absorbance (Abs) at 450 nm.
The percentage of hydroxyl radicals converted into hydroxyl ions (% conversion) by the compound of interest may be calculated using Formula 1: […]
The anti-oxidant capacity of a compound may then be expressed in the form of IC50 that reflects the concentration at which 50% of hydroxyl radicals have been reduced by the tested compound.
Thus, the compounds to be tested and Trolox® were solubilised in ethanol so as to obtain solutions at 1 mM. We used cascade dilutions to obtain a concentration range varying from 1 mM to 10 nM. 90 μL of a 1:1 water-ethanol mixture was then added onto an ELISA 96-well plate, followed by 15 μL of an aqueous solution of ABTS at 1 mM, 15 μL of an aqueous solution of Fe2SO4 at 0.5 mM, 15 μL of each compound to be tested at different concentrations, and then 15 μl of an aqueous solution of hydrogen peroxide at 100 mM. The mixtures thus obtained were stirred at ambient temperature sheltered from air for 30 minutes, and the value of the absorbance at […] was then measured. The capacity of each compound to reduce hydroxyl radicals is determined by the reduction in absorbance at 450 nm, the control solution being composed of pure ethanol. Therefore, the ABTS test was made in comparison with Trolox®. The same ranges from 10 nm to 1 mM of indoles 1a, 1c, 1g, 1i, 2a, 4c, 2g, 2h and 2i were tested.

[3] = tested on: reactive oxygen species (ROS) in neurones of ventral mesencephalon cultures; experiment: Cellular test with dihydrorhodamine 123 (DHR-123); format: cell-based, rat; conditions: compounds 10 nM for eight days, 50 μM DHR-123 30 minutes; control = 100; Trolox at 10 μM per FIG. 1
Experimental: Dihydrorhodamine 123 or DHR123 is used as an indicator of reactive oxygen species (ROS). It is uncharged and not fluorescent and passes passively through the cellular membrane before being oxidised in contact with free radicals, into rhodamine 123 emitting green fluorescence.
The quantity of intracellular ROS is reduced when the cells are treated by an anti-oxidant. This reduction results in a quantifiable decay in emitted fluorescence in the presence of DHR123.
In order to conclude the role of the anti-oxidant capacity of compounds according to the invention in the observed neuroprotectrive activity, the cultures were placed strictly under the same conditions as for the neuroprotection/neuritogenesis test. Thus, the cultures were kept for eight days in the presence of a concentration of 10 nM of each of the tested tryptaminic derivatives. On the 8th day in vitro (DIV 8), 50 μM of DHR-123 (Sigma) was added and the cells were incubated for 30 minutes at 37° C. They were then washed three times, treated once again by compounds according to the invention and placed in a medium without any phenol red. Living fluorescent neurones that were immediately photographed can be observed, the fluorescence density per neurone being quantified under an inverted fluorescence microscope by an image analysis software.

CCCCCCCCCCCCCCCCNCCc1c[nH]c2ccccc12 [Compound 2c, N-(2-(1H-indol-3-yl)ethyl)hexadecan-1-amine]
Neuritic length/TH+ neuron, % relative to control ± SEM [1]: 197.0 ± 14.0 %
IC50 [2]: 620 µM
IF/neurone (%) (fluorescence intensity per neurone) [3]: 47.8 ± 4.7 %
